Test results from patent publication US20250332180A1, “CANNABINOIDS AND IL-15 ACTIVATE NK CELLS” (The Regents of the University of California, priority 2022, published 2025).

Experiments:
IFN-γ secretion = IFN-γ secretion of immune cells in humanized BLT mice (ELISA, ELISpot); format: in vivo; conditions: hu-BLT mice
Experimental: Humanized BLT mice (hu-BLT; human-bone marrow/liver/thymus) were fed with, AJ2 (5×10^9 CFU/mice, every 2 days, Oral administration), WIN 55,212-2 (2 mg/kg, every 2 days, IP) and/or IL-15 (5 μg/mice, every 2 days, IP). After 3 weeks of treatment, immune cells were collected from peripheral blood, bone marrow and spleen, and CD3+ T cells were isolated from splenocytes with EasySep™ Human CD3 positive selection kit II (StemCell Tech.). PBMCs (0.5×10^6 cells) obtained from the peripheral blood were treated with IL-2 (1000 U/ml) and/or anti-CD16 antibody (BioLegend) (3 μg/ml) for 3 days, after which the cells were counted and different numbers of E:T ratios were used for the assessment of cytotoxicity using 4-hr Chromium release assay (FIG. 1A and FIG. 1B). The percentage specific cytotoxicity was calculated using the following formula (% cytotoxicity=(Experimental cpm/spontaneous cpm)/(total cpm−spontaneous cpm)) and the lytic unit 30 (Lu30/10^6) was calculated by using the inverse of the number of effector cells needed to lyse 30% of tumor target cells×100. Killing per % NK cells was determined by dividing the total Lytic unit 30 by the percentage of NK cells in each sample (FIG. 1A and FIG. 1B). PBMCs (0.5×10^6 cells) obtained from the blood were treated with IL-2 (1000 U/ml) and/or anti-CD16 antibody (BioLegend) (3 μg/ml) for 24 hours, after which the supernatants were collected to measure IFN-g secretion using ELISA (BioLegend, San Diego) (FIG. 1C). ELISpot was used to determine the IFN-γ spots in PBMC (FIG. 1D), bone marrow (FIG. 1E), spleen (FIG. 1F) and CD3+ T cells (FIG. 1G).
Humanized BLT mice (hu-BLT; human-bone marrow/liver/thymus) were fed with, AJ2 (5×10^9 CFU/mice, every 2 days, Oral administration), WIN 55,212-2 (2 mg/kg, every 2 days, IP) and/or IL-15 (5 μg/mice, every 2 days, IP). After 3 weeks of treatment, immune cells were collected from peripheral blood, bone marrow and spleen, and CD3+ T cells were isolated from splenocytes with EasySep™ Human CD3 positive selection kit II (StemCell Tech.). PBMCs (0.5×10^6 cells) obtained from the peripheral blood were treated with IL-2 (1000 U/ml) and/or anti-CD16 antibody (BioLegend) (3 μg/ml) for 3 days, after which the cells were counted and different numbers of E:T ratios were used for the assessment of cytotoxicity using 4-hr Chromium release assay (FIG. 6A and FIG. 6B). The percentage specific cytotoxicity was calculated using the following formula (% cytotoxicity=(Experimental cpm/spontaneous cpm)/(total cpm−spontaneous cpm)) and the lytic unit 30 (Lu30/10^6) was calculated by using the inverse of the number of effector cells needed to lyse 30% of tumor target cells×100. Killing per % NK cells was determined by dividing the total Lytic unit 30 by the percentage of NK cells in each sample (FIG. 6A and FIG. 6B). PBMCs (0.5×10^6 cells) obtained from the blood were treated with IL-2 (1000 U/ml) and/or anti-CD16 antibody (BioLegend) (3 μg/ml) for 24 hours, after which the supernatants were collected to measure IFN-g secretion using ELISA (BioLegend, San Diego) (FIG. 6C). ELISpot was used to determine the IFN-γ spots in PBMC (FIG. 6D), bone marrow (FIG. 6E), spleen (FIG. 6F) and CD3+ T cells (FIG. 6G).

OSCCs [1] = assay: Cell count of viable cells (Trypan Blue, light microscope); format: cell-based, human; conditions: WIN 55,212-2 10-100 μM, 24 hours
Description: The number of viable cells was counted under light microscope using Trypan Blue staining. Compiled data from three independent experiments performed as shown.
The number of viable cells was counted under light microscope using Trypan Blue staining (Sigma, MO, USA).

MP2 tumor cells = assay: Cell death assay (PI staining, flow cytometry); format: cell-based, human; conditions: 25-100 μM, 24-48 hours
Experimental: PI staining was used to determine the cell death by flow cytometry. One of two representative experiments is shown in (FIG. 4A) and the compiled data of paired MP2 and PL-12 at the same concentration of WIN 55,212-2 treatment is shown in (FIG. 4B). […] Two experiments were compiled and the % cell death of various WIN 55-212,2 concentration (10, 25, 50 and 100 μM) was compared to the untreated control for both PL12 (FIG. 4C) and MP2 (FIG. 4D). […] Non-linear regression was used to fit the curve of the % cell death induced by WIN 55-212,2 in various concentrations (10, 25, 50 and 100 μM) for both PL12 and MP2 (FIG. 4E).
PI staining was used to determine the cell death by flow cytometry. Compiled data from two experiments is shown.

OSCSCs = assay: Cell death assay (PI staining, flow cytometry); format: cell-based, human
Experimental: (§1) No differences between untreated tumor cells and those treated with the DMSO vehicle alone in cell count or the amount of cell death in OSCCs and OSCSCs. […] Proportion of the live cells that had lost forward and side scatter were determined indicating decreased viability of the cells. In addition, the numbers of viable cells were determined after PI staining followed by flow cytometric analysis (FIG. 2A). OSCC tumor cells were treated as in FIG. 2A and the cells were analyzed by flow cytometry to determine the proportion of the live cells that had lost forward and side scatter indicating decreased viability of the cells (FIG. 2B) and the numbers of viable OSCC tumor cells were determined after PI staining followed by flow cytometric analysis (FIG. 2C). […] PI staining was used to determine the cell death by flow cytometry. One of four representative experiment is shown in (FIG. 2D). The compiled data of paired OSCCs and OSCSCs at the same concentration of WIN 55,212-2 treatment from four experiments is shown in (FIG. 2E). Four experiments were compiled and the % cell death of tumor cells by various WIN 55-212,2 concentrations (10, 25, 50 and 100 μM) were compared to the untreated control for both OSCC (FIG. 2F) and OSCSC (FIG. 2G). […] Non-linear regression was used to fit the curve of the % cell death induced by WIN 55-212,2 in various concentrations (10, 25, 50 and 100 μM) for both OSCC and OSCSC. […] The differences were clear within each independent experiment.
(§2) PI staining was used to determine the cell death by flow cytometry. Compiled data from four independent experiments performed is shown.

OSCCs [2] = assay: Cell death assay (PI staining, flow cytometry); format: cell-based, human; conditions: 24 hours
Experimental: as §1, §2

[3] = WIN 55,212-2 2 mg/kg IP every 2 days, 3 weeks

CS(=O)(=O)O.Cc1c(C(=O)c2cccc3ccccc23)c2cccc3c2n1[C@H](CN1CCOCC1)CO3 [WIN 55,212-2, (R)-(+)-[2,3-Dihydro-5-methyl-3-(4-morpholinylmethyl)pyrrolo[1,2,3-de]-1,4-benzoxazin-6-yl]-1-naphthalenylmethanone mesylate]
IFN-γ immune-spots (ELISpot) in PBMCs (IFN-γ secretion; [3]): augmented | IFN-γ immune-spots (ELISpot) in bone marrow (IFN-γ secretion; [3]): augmented | IFN-γ immune-spots (ELISpot) in purified CD3+ T cells (IFN-γ secretion; [3]): augmented | IFN-γ immune-spots (ELISpot) in spleen (IFN-γ secretion; [3]): augmented | IFN-γ secretion (ELISA, PBMCs) (IFN-γ secretion; every 2 days for 3 weeks, WIN 55,212-2 2 mg/kg IP, IL-15 5 μg/mice IP): augmented IFN-γ secretion | decrease in cell numbers (OSCCs [1]): 10-25% | percentages of dead cells (PI staining) (MP2 tumor cells): approximately 30% | amounts of cell death in OSCSCs compared with those induced by CDDP (OSCSCs; 25-100 μM): either similar or higher | cell death (PI staining) compared with OSCCs (OSCSCs; all concentrations tested, 24 hours): higher cell death | cell death (PI staining) (OSCCs [2]; 75 and 100 μM): up to 10% | forward scatter/side scatter (size of cells, early apoptosis) (OSCCs [2]; different concentrations): significant dose dependent decrease
